According to US20210230548A1, “NATURAL KILLER CELLS ENGINEERED TO EXPRESS CHIMERIC ANTIGEN RECEPTORS WITH IMMUNE CHECKPOINT BLOCKADE” (Board of Regents, The University of Texas System, priority 2018, published 2021):

Key:
[1] = tested on: iC9/CAR.19/IL-15 CB-NK cells; experiment: Suicide gene validation in vivo in Raji tumor-bearing mice; design: species or system mouse; details: dimerizer on days 7 and 9 post NK infusion, sacrifice day 12; both control and CISH KO cells
Procedure: (§1) Activation of suicide gene in vitro and validation in vivo: The small-molecule dimerizer AP1903 (10 nM), was added to CB-NK cell cultures for 4 h. The elimination of transduced cells was evaluated by Annexin-V/Live dead staining. The efficacy of the suicide gene was also tested in vivo by treating tumor-bearing mice that had received iC9/CAR.19/IL-15+ NK cells (control or CISH KO) with two doses of AP1903 (50 μg each) intraperitoneally, 2 days apart on days 7 and 9. Two other groups of mice (control and CISH KO) served as control without AP1903 treatment. All mice were sacrificed on day 12, and blood and organs (Liver, spleen and bone marrow) were collected, processed and flow cytometry was performed to determine CAR-NK fraction and viability.

[2] = tested on: iC9/CAR.19/IL-15 NK cells; experiment: Activation of suicide gene in vitro with dimerizer AP1903; type: cell-based
Procedure: as §1

CISH locus = experiment: GUIDE-seq off-target identification in HEK293 cells constitutively expressing Cas9; type: cell-based; details: GuideSeq
Source text: Off-target Identification: The GUIDE-seq method was employed for unbiased discovery of off-target editing events (Tsai et al., 2015). In this study, HEK293 cells that constitutively express the S pyogenes Cas9 nuclease (“HEK293-Cas9” cells) were the source of Cas9. Alt-R® gRNA complexes were formed by combining Alt-R tracrRNA and Alt-R crRNA XT at a 1:1 molar ratio. gRNA complexes were delivered by nucleofection using the Amaxa™ Nucleofector™ 96-well Shuttle™ System (Lonza, Basel, Switzerland). For each nucleofection, 3.5×10^5 HEK293-Cas9 cells were washed with 1×PBS, resuspended in 20 μL solution SF (Lonza) and combined with 10 μM gRNA along with 0.5 μM GUIDE-seq dsDNA donor fragment. This mixture was transferred into one well of a Nucleocuvette™ Plate (Lonza) and electroporated using protocol 96-DS-150. DNA was extracted 72 hrs after electroporation using the GeneJET Genomic DNA purification kit (Thermo Fisher Scientific). NGS library preparation, sequencing, and operation of the GUIDE-seq software was performed as previously described except that Needleman-Wunch alignment was incorporated (Tsai et al., 2016).

CC[C@H](C(=O)N1CCCC[C@H]1C(=O)O[C@H](CCc1ccc(OC)c(OC)c1)c1cccc(OCC(=O)NCCNC(=O)COc2cccc([C@@H](CCc3ccc(OC)c(OC)c3)OC(=O)[C@@H]3CCCCN3C(=O)[C@@H](CC)c3cc(OC)c(OC)c(OC)c3)c2)c1)c1cc(OC)c(OC)c(OC)c1 [AP1903]
reduction in iC9/CAR.19/IL-15 CB-NK cells in blood and tissues (liver, spleen, bone marrow) [1]: striking reduction
time to apoptosis of transduced NK cells ([2]; 10 nM): ≤ 4 h
apoptosis of transduced NK cells ([2]; 10 nM added to cultures): induced apoptosis of transduced NK cells

crRNA2: crRNA targeting CISH exon 4, sequence TGTACAGCAGTGGCTGGTGG (SEQ ID NO:2) (listed as DNA, chemistry not given here)
off-target sites / events (CISH locus): even higher frequencies of off-target events
